Results on one molecule are retold here after patent publication US10662214B2, “Compound of 4′-thionucleoside, as well as preparation method therefor, pharmaceutical composition thereof and application thereof” (Sichuan Kelun-Biotech Biopharmaceutical Co., Ltd., priority 2015, dated 2020).

The test system of data set [1] is gastric cancer cell NCI-N87. Kind of data set: Subcutaneous xenograft of gastric cancer cell NCI-N87 in nude mice (Experimental example 2). Format: in vivo. To be noted: 190 μmol/kg i.v.
Method: (§2) This experimental example was used for the evaluation of the effectiveness of the compounds of the present invention in inhibiting the proliferation of a subcutaneous xenograft of human tumor cells via various routes of administration.
(§3) Gastric cancer cell NCI-N87 and colorectal cancer cell HCT-116 were cultured as a monolayer in vitro, and the culture conditions were RPMI-1640 culture medium supplemented with 10% heat inactivated Fetal Bovine Serum, and incubation in an incubator at 37° C. and 5% CO2. The cells were subcultured by treatment with trypsin-EDTA digestion.
(§4) The tumor cells were respectively inoculated into BALB/c nude mice (SPF grade, female, 16-18 g per mouse, about 6 to 8 weeks old, Beijing Vital River Laboratory Animal Technology Co., Ltd.).
(§5) Each nude mouse was inoculated with about 2.5×10^6 HCT-116 tumor cells or about 3×10^6 NCI-N87 tumor cells (suspended in 0.1 ml PBS) subcutaneously into the underarm of the right flank. After the inoculated tumor reached a size in the range of about 100-200 mm^3, nude mice bearing a tumor that is too small (smaller than 100 mm^3) or too big (bigger than 200 mm^3) were removed from the study, and the remaining ones were randomized into groups.
(§6) Sulfobutyl ether-β-cyclodextrin (SE-β-CD) was formulated with physiological saline to form a 10% solution, which was then filtered through a 0.22 μm sterile filter for later use.
(§7) An appropriate amount of the test compound was weighted, and added in DMSO. The resultant solution was vortexed to uniformity, and the 10% solution of SE-β-CD was added according to the desired concentration. The solution was vortexed to uniformity, and the final concentration of DMSO was adjusted to 5%. A gemcitabine injection (a positive control) was directly diluted to the desired concentration with physiological saline. A 10% solution of SE-β-CD containing 5% DMSO was prepared as a vehicle control.
(§8) Mice bearing a tumor having a volume of about 100-200 mm^3 were selected, and randomized into 5 groups (8 mice per group). The dosing volume was 10 mL/kg, and the administration (intravenous administration (i.v.) or oral administration (p.o.)) was performed twice a week for 3 weeks. The tumor volume and body weight were measured twice a week after the administration, and the mortality of animals was observed every day.
(§9) The diameter of a tumor was measured, and the tumor volume was calculated according to the following formula: V=0.5a×b^2, wherein a and b respectively represent the major and minor diameters of a tumor. The anti-tumor effect was evaluated by the tumor growth inhibition (TGI) (%). TGI (%)=[1−(VT-end−VT-start)/(VC-end−VC-start)]*100%
(§10) The body weight of an animal was measured twice a week.
For data set [2], the system named is human pancreatic cancer cell BxPC-3. Kind of data set: Subcutaneous xenograft of human pancreatic cancer cell BxPC-3 in a nude mouse (Experimental example 3). Format: in vivo. As to conditions: once every 3 days, 4 times. As for the experimental part: According to methods similar to those in sections 1 to 2 in Experimental example 2, pancreatic cancer cell BxPC-3 was cultured as a monolayer in vitro, and inoculated, and the animals were randomized into groups.
An appropriate amount of the test compound was weighted out, and added in DMSO. The 10% solution of SE-β-CD was then added according to the desired concentration, and the final concentration of DMSO was adjusted to 2.5%. A gemcitabine injection (a positive control) was diluted to the desired concentration with physiological saline. A 10% solution of SE-β-CD containing 2.5% DMSO was prepared as a vehicle control.
Mice bearing a tumor having a volume of 100-200 mm^3 were selected, and randomized into 14 groups (7 mice per group). The dosing volume was 20 mL/kg, and the administration (intravenous administration (i.v.)) was performed once every 3 days, for 4 times in total.
(§1) For statistical calculations of the test indexes, please refer to Experimental example 2.
Background: Xenograft models place foreign cells or tissue in a host animal.

Data set [3] has the same test system. Kind of data set: Subcutaneous xenograft of human pancreatic cancer cell BxPC-3 in a nude mouse (Experimental example 4). Format: in vivo. As for the experimental part: According to methods similar to those in sections 1 to 3 in Experimental example 2, pancreatic cancer cell BxPC-3 was cultured as a monolayer in vitro, and inoculated; the animals were randomized into groups; and samples were prepared.
Mice bearing a tumor having a volume of 80-250 mm^3 were selected, and randomized into 6 groups (8 mice per group). The dosing volume was 10 mL/kg.
as §1
The test results obtained by administrating (intravenous administration (i.v.) or oral administration (p.o.)) once a week for 3 weeks are shown in table 7-2.

Data set [4] relates to human pancreatic cancer cell Capan-1. As to the kind of experiment: Subcutaneous xenograft of human pancreatic cancer cell Capan-1 in a nude mouse (Experimental example 5). It counts as in vivo. As to conditions: once every 3 days, 6 times. As for the experimental part:
According to methods similar to those in sections 1 to 2 in Experimental example 2, pancreatic cancer cell Capan-1 was cultured as a monolayer in vitro, and inoculated, and the animals were randomized into groups.
Samples were prepared as described in Experimental example 2.
Mice bearing a tumor having a volume of 100-200 mm^3 were selected, and randomized into 7 groups (7 mice per group).
as §1

Data set [5] concerns human pancreatic cancer cell PANC-1. As to the kind of experiment: Subcutaneous xenograft of human pancreatic cancer cell PANC-1 in a nude mouse (Experimental example 6). Format: in vivo. As to conditions: 0.06 mmol/kg i.v., once every 3 days, 6 times. On the procedure:
This test was performed according to experimental example 5.
Mice bearing a tumor having a volume of 100-200 mm^3 were selected, and randomized into 4 groups (6 mice per group).

For data set [6] the following is noted: mice, significant dose administered intravenously; cited from earlier work.
For data set [7], the system named is colorectal cancer cell HCT-116. As to the kind of experiment: Subcutaneous xenograft of colorectal cancer cell HCT-116 in nude mice (Experimental example 2). As to conditions: 190 μmol/kg i.v.
Method: as §2, §3, §4, §5, §6, §7, §8, §9, §10

For the molecule `Nc1ccn([C@@H]2O[C@H](CO)[C@@H](O)C2(F)F)c(=O)n1` [Gemcitabine injection, Gemcitabine, reference compound], the “TGI (%)” value in data set [1] (twice a week for 3 weeks) is 107%; in data set [2] (0.04 mmol/kg i.v.), −2.2%; in data set [2] (0.12 mmol/kg i.v.) it was 28.9%; in data set [2] (0.24 mmol/kg i.v.), 45.5%; in data set [3] (0.12 mmol/kg i.v., twice a week for 3 weeks), 23.6%; in data set [3] (0.23 mmol/kg i.v., once a week for 3 weeks), 23.6%. Moreover, the “TGI (%)” value was 15.4% in data set [4] (0.02 mmol/kg i.v.), 78.9% in data set [4] (0.19 mmol/kg i.v.), 64.4% in data set [5] and 92% in data set [7] (twice a week for 3 weeks). The “Tumor regression, CR (complete tumor regression)” value in data set [1] (animals out of 8) is given as 2/8 CR,. Also, the “Tumor regression, PR (partial tumor regression)” value in data set [1] (animals out of 8) is 6/8 PR. Also, the “death or gastrointestinal toxicity after intravenous dosing” value in data set [6] was “no death or gastrointestinal toxicity”. In data set [7], the Mortality was 0. Besides, in data set [7] (14 days after last administration), the Tumor regression is 0.
